# Source: patent US10729723B2, “Method for inducing cell reprogramming, and method for producing pluripotent cells” (NATIONAL UNIVERSITY CORPORATION KUMAMOTO UNIVERSITY, priority 2014, dated 2020)
# Columns and labels:
# HDF cells [1] = assay: influence of endocytosis inhibitor on cell-cluster formation by Lactobacillus 70S ribosome fraction; format: cell-based, Human; conditions: 70S ribosome fraction 0.5 μg/50 μl/well, HDF cells 20,000 cells, cultured 2 days
# Experimental: (§1) In the presence of an endocytosis inhibitor shown in the following Table, the cell-cluster forming ability was examined using the Lactobacillus 70S ribosome fraction prepared in Example 6. The 70S ribosome fraction was placed into a 96-well plate (0.5 μg/50 μl/well), HDF cells (20,000 cells/100 μl) were added, and each inhibitor (50 μl) was added. The cells were cultured in a CO2 incubator for 2 days, and the number of the formed cell-clusters was measured. The inhibitor was used with the concentration shown in Table being the standard concentration (concentration “5” in FIG. 9). Accordingly, for example, in the case of CP, the concentration “5” is 10 μM, and the concentration “10” is 20 μM. In addition, the MTT assay (measurement of cell death by colorimetric method) was conducted.
# HDF cells [2] = assay: MTT assay (measurement of cell death by colorimetric method); format: cell-based; conditions: HDF cells with 70S ribosome fraction, 2 days
# Experimental: as §1
Compound,number of the formed cell-clusters in the presence of inhibitor (HDF cells [1]),"toxicity of inhibitor, considered cause of decreased cell-cluster number (MTT assay, cell survival ratio) (HDF cells [2])"
Methyl-β-cyclodextrin [MC],increased concentration-dependently,–
"CN(C)CCCN1c2ccccc2Sc2ccc(Cl)cc21 [CP, Chlorpromazine]",decreased,–
"C[C@@H]1[C@H](O)[C@@H](C)/C=C/C=C/CC/C=C/C=C/C=C/C=C/C(O[C@H]2O[C@H](C)[C@@H](O)[C@H](N)[C@@H]2O)CC2O[C@](O)(CC(O)C(O)CCC(O)CC(O)CC(O)CC(=O)O[C@H]1C)CC(O)C2C(=O)O (stereo partly shown) [NY, Nystatin]",decreased,toxicity
